Assay results reported in US7312237B2, “Combination of epothilone analogs and chemotherapeutic agents for the treatment of prolilferative diseases” (Bristol-Myers Squibb Co., priority 2001, dated 2007).
Like-named read-outs stand apart in the source and are kept apart here.

How the values were obtained:
HCT116 cells = test: Mitotic blockade (cell cycle progression); assay type: cell-based, human; conditions: 7.5 nM, 8 hours
[1] = In vivo antitumor testing, Pat-7 in nude mice; conditions: nude, mouse, in vivo
Method: All tumor implants for efficacy testing were subcutaneous (sc).
The MTD was frequently equivalent to OD. When death occurs, the day of death was recorded.
And, Log cell kill=T−C÷(3.32×TVDT)
This tumor model was established from a tumor biopsy of an ovarian cancer patient (Pat-7), who was initially responsive to TAXOL® treatment but ultimately developed resistance to it following nine courses of monotherapy with TAXOL®. Prior to treatment with TAXOL®, Pat-7 also received numerous other chemotherapeutic agents including carboplatin, cytoxan, VP-16, ifosfamide and altretamine. Tumor biopsy was taken following development of TAXOL® resistance.

C/C(=C\c1csc(C)n1)[C@@H]1C[C@@H]2O[C@]2(C)CCC[C@H](C)[C@H](O)[C@@H](C)C(=O)C(C)(C)[C@@H](O)CC(=O)N1 (relative stereo) [Compound 1, [1S-[1R*,3R*(E),7R*,10S*,11R*,12R*,16S*]]-7,11-dihydroxy-8,8,10,12,16-pentamethyl-3-[1-methyl-2-(2-methyl-4-thiazolyl)ethenyl]-4-aza-17-oxabicyclo[14.1.0] heptadecane-5,9-dione]
block of cells in mitosis (HCT116 cells): almost completely blocks cells in mitosis
MTD ([1]; iv, Compound 1 IV, q2dx5, read-out: OD (optimal dose or maximum tolerated dose, MTD)): 4.8 mg/kg
MTD ([1]; iv, Compound 1 IV, q4dx3, read-out: OD (optimal dose or MTD)): 15 mg/kg
MTD ([1]; po, Compound 1 PO, q2dx5, read-out: OD (optimal dose or MTD)): 60 mg/kg
